Experimental data reported in US8519007B2, “Use certain diterpene compounds in the treatment of androgen receptor-associated diseases” (Academia Sinica, priority 2008, dated 2013).

How the values were obtained:
[1] = system: 22Rv1 cells; experiment: Morphology of treated cells; settings: 22Rv1, 10 to 50 μM, 48 h
Description: The long-term effect of HDHS on the malignant growth of AR-dependent (22Rv1, and LNCaP) and AR-independent (PC-3) PCa cells was examined by colony-forming growth assay.

[2] = biological target: T1, AR (Homo sapiens, UniProt P10275, T878A); experiment: AR nuclear translocation by confocal immunofluorescence in LNCaP cells; assay type: cell-based; settings: steroid-deprived, 5 to 10 μM, 1 h
T1 construct: endogenous in cells; host or cells: LNCaP
T1 sequence (P10275 1-920 T878A): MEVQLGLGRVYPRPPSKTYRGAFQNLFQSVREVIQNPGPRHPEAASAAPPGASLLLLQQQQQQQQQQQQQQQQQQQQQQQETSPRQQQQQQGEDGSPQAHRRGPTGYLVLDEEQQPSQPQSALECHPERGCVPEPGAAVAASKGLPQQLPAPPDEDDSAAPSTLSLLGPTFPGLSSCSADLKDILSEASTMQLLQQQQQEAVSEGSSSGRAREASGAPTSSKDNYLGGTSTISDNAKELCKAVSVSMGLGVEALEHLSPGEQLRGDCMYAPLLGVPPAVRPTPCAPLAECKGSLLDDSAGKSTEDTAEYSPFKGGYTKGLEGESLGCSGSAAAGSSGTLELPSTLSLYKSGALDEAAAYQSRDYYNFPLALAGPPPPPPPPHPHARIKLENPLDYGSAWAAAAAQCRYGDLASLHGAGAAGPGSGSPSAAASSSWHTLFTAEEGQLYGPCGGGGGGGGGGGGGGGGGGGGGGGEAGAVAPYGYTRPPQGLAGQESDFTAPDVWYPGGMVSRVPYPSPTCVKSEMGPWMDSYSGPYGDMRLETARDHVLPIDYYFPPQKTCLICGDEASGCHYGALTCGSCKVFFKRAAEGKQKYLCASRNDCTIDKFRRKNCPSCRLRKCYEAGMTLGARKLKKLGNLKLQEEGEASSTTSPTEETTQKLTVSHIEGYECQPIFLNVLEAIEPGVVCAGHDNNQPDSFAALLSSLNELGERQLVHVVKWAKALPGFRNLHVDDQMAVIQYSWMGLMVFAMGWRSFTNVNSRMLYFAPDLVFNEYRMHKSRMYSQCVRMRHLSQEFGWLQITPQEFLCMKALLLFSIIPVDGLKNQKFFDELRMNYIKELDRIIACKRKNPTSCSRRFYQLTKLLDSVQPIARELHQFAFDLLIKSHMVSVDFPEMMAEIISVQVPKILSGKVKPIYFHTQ
Description: Specifically, LNCaP cells were grown in medium containing 5% charcoal-dextran stripped FBS on 12-mm coverslips for 48 h and then treated with vehicle or various compound treatments for another 1 h. Cells were fixed with 4% (v/v) paraformaldehyde on ice for 15 min, permeabilized with 0.2% (v/v) Triton X-100/PBS, and then washed with PBS three times. […] The samples were washed again and mounted in mounting medium (Vector, Burlingame, Calif.). The cellular location of AR was visualized by confocal microscopy (LSM 510 META, Carl Zeiss GmbH, Jena, Germany) and analyzed using the manufacturer's software.

[3] = system: LNCaP cells; experiment: Cell cycle distribution by propidium iodide flow cytometry; assay type: cell-based, human; settings: 48 h
Description: (§1) The cell cycle of treated cells was examined by flow cytometry after cellular staining with propidium iodide. 5×10^5 cells were seeded into 6-well multidishes with 10% FBS culture medium for 48 h. […] Cells were trypsinized thereafter, washed twice with cold PBS, and centrifuged. The pellet was suspended in cold PBS and 1 mL of 70% ethanol at 4° C. overnight, washed twice with cold PBS, and digested with RNase (100 μg/mL final concentration) and stained with propidium iodide (10 μg/mL final concentration) for 30 min and analyzed by flow cytometry (EPICS XL-MCL, Beckman Coulter, Inc., Fullerton, Calif.).

[4] = system: 22Rv1 cells; experiment: Apoptosis by nucleosome release (cytoplasmic DNA fragmentation); assay type: cell-based, human; settings: 22Rv1, 5-10 μM, 24 h
Description: A, Apoptosis of cytoplasmic DNA fragmentation in different cell lines treated with vehicle or indicated concentrations of HDHS for 24 h. Difference between the indicated pair of treatments was tested for statistic significance as marked. *, P≦0.05; **, P≦0.01.
In light of the increase of sub-G1 populations by HDHS, apoptosis in treated cells was further analyzed via measurement of nucleosome release in PCa cells.

[5] = system: 22Rv1 tumors; experiment: 22Rv1 xenograft in athymic nude mice, oral HDHS; assay type: in vivo
Description: 22Rv1 cells were derived from a castration-relapsed tumor of human PCa origin that represents a clinical limitation for hormonal therapy (Nagabhushan M, et al., Cancer Res 1996;56:3042-6; Sramkoski R M, et al., In Vitro Cell Dev Biol Anim 1999; 35:403-9). The potential of HDHS to inhibit growth of PCa in vivo was tested in athymic nude mice with 22Rv1 tumors. […]. All animal work was done in accordance with the protocol approved by the Institutional Animal Care and Use Committee, Academia Sinica. Aliquots of 1×10^6 22Rv1 cells were suspended in 1:1 PBS mixed with Matrigel (BD Biosciences, San Jose, Calif.) and were subcutaneously inoculated into the right flank of each mouse. Once the tumor grew to palpable size one week after 22Rv1 cells were implanted, mice were stochastically assigned to three groups (n=7) that received vehicle control or HDHS at different dosages (0.5 and 2.5 mg/kg/day), by gavage in 0.2 mL of PBS containing 10% DMSO. Tumors were measured twice per week using calipers and their volumes calculated using a standard formula, as follows: width2×length×0.5. Body weight was measured weekly. Mice received 24 doses, and 24 h after the last dose they were sacrificed to harvest plasma and tumors. A portion of each tumor was snap-frozen in liquid nitrogen and stored at −80° C. until needed for western blot analysis of relevant biomarkers, and the remainder was fixed in 10% formalin overnight.
Immunohistochemistry was conducted to examine the in vivo effects of HDHS on proliferation and apoptosis in tumor xenografts. The paraffin-embedded tumor sections (4 μm thickness) were heat immobilized, deparaffinized using xylene and rehydrated in a graded series of ethanol with a final wash in distilled water. Antigen retrieval was done in TARGET RETRIEVAL SOLUTION (DakoCytomation, Glostrup, Denmark) in a DECLOAKING CHAMBER (Biocare Medical, Concord, Calif.) followed by quenching of endogenous peroxidase activity. Sections were then incubated with specific primary antibodies, including mouse monoclonal anti-Ki-67 (DakoCytomation) and rabbit polyclonal anti-AR (Santa Cruz) at 4° C. overnight in a humidity chamber. An ENVISION system (DakoCytomation) was used to detect the reaction products. In situ detection of apoptotic cells was carried out using terminal deoxynucleotidyl transferase-mediated nick-end labeling (TUNEL assay) reaction mixture according to the manufacturer's protocol (Chemicon).

[6] = system: 22Rv1 cells; experiment: Cell cycle distribution by propidium iodide flow cytometry; assay type: cell-based, human; settings: 48 h
Description: as §1

[7] = 0.5 and 2.5 mg/kg/day oral, 24 days

**Q.** What does the source list for `CC(C)c1cc2c(cc1O)[C@@]1(C)CCCC(C)(C)C1=C(O)C2=O` [Compound 2, 6,12-dihydroxyabieta-5,8,11,13-tetraen-7-one]?
**A.** morphology of treated cells [1]: cell rounding and surface blebbing; AR nuclear localization [2]: significant AR accumulation in the nucleus; G0-G1 phase cell population ([3]; 2.5 μM): 62.6 ± 2.8 %; G2-M phase cell population ([3]; 2.5 μM): 21.1 ± 2.4 %; S phase cell population ([3]; 2.5 μM): 11.5 ± 2.1 %; Sub-G1 phase cell population ([3]; 2.5 μM): 0.8 ± 0.4 %; G0-G1 phase cell population ([3]; 5 μM): 66.9 ± 2.0 %; G2-M phase cell population ([3]; 5 μM): 18.7 ± 3.5 %; S phase cell population ([3]; 5 μM): 8.1 ± 1.8 %; Sub-G1 phase cell population ([3]; 5 μM): 3.9 ± 0.7 %; G0-G1 phase cell population ([3]; 10 μM): 45.1 ± 3.1 %; G2-M phase cell population ([3]; 10 μM): 20.2 ± 2.1 %; S phase cell population ([3]; 10 μM): 6.8 ± 2.4 %; Sub-G1 phase cell population ([3]; 10 μM): 24.3 ± 3.1 %; apoptosis (nucleosome release) [4]: significantly induced; Ki-67 positive proliferative tumor cells [5, 7]: decreased the number of cells positively stained for Ki-67; TUNEL positive apoptotic tumor cells [5, 7]: increase of apoptotic tumor cells; AR expression in tumor cells (immunohistochemistry) ([5]; HDHS-treated 22Rv1 tumors): prevalent decrease of AR expression; tumor growth of 22Rv1 xenograft ([5]; nude mice, 0.5 and 2.5 mg/kg/day by gavage, 24 doses): significantly retarded tumor growth; symptoms of toxicity (loss of appetite, decreased locomotion, signs of illness) ([5]; nude mice, 24-day regimen, oral): did not exhibit any symptoms of toxicity; body weight of tested mice ([5]; up to 2.5 mg/kg per day, oral): not influenced; G0-G1 phase cell population ([6]; 22Rv1, 2.5 μM): 54.5 ± 2.5 %; G2-M phase cell population ([6]; 22Rv1, 2.5 μM): 24.8 ± 2.4 %; S phase cell population ([6]; 22Rv1, 2.5 μM): 11.2 ± 1.9 %; Sub-G1 phase cell population ([6]; 22Rv1, 2.5 μM): 2.2 ± 0.8 %; G0-G1 phase cell population ([6]; 22Rv1, 5 μM): 57.9 ± 1.9 %; G2-M phase cell population ([6]; 22Rv1, 5 μM): 23.7 ± 2.7 %; S phase cell population ([6]; 22Rv1, 5 μM): 8.0 ± 1.4 %; Sub-G1 phase cell population ([6]; 22Rv1, 5 μM): 3.8 ± 0.9 %; G0-G1 phase cell population ([6]; 22Rv1, 10 μM): 48.4 ± 2.9 %; G2-M phase cell population ([6]; 22Rv1, 10 μM): 24.5 ± 2.0 %; S phase cell population ([6]; 22Rv1, 10 μM): 5.7 ± 2.2 %; Sub-G1 phase cell population ([6]; 22Rv1, 10 μM): 14.4 ± 3.7 %
